In ChEMBL document CHEMBL4007388, “Synthesis and antiproliferative activity of monocationic arylthiophene derivatives” (Eur J Med Chem, 2017):

How the values were obtained:
[1] = system: CCRF-CEM; test: Growth inhibition of human CCRF-CEM cells incubated for 48 hrs by sulforhodamine B assay; format: functional
[2] = system: HL-60(TB); test: Growth inhibition of human HL-60(TB) cells incubated for 48 hrs by sulforhodamine B assay; format: functional; settings: HL-60, 48 h
[3] = system: K562; test: Growth inhibition of human K562 cells incubated for 48 hrs by sulforhodamine B assay; format: functional; settings: K562, 48 h
[4] = system: MOLT-4; test: Growth inhibition of human MOLT4 cells incubated for 48 hrs by sulforhodamine B assay; format: functional; settings: MOLT-4, 48 h
[5] = system: RPMI-8226; test: Growth inhibition of human RPMI8226 cells incubated for 48 hrs by sulforhodamine B assay; format: functional; settings: RPMI-8226, 48 h
[6] = system: SR; test: Growth inhibition of human SR cells incubated for 48 hrs by sulforhodamine B assay; format: functional
[7] = system: HOP-62; test: Growth inhibition of human HOP62 cells incubated for 48 hrs by sulforhodamine B assay; format: functional; settings: HOP-62, 48 h
[8] = system: NCI-H322M; test: Growth inhibition of human NCI-H322M cells incubated for 48 hrs by sulforhodamine B assay; format: functional
[9] = system: NCI-H522; test: Growth inhibition of human NCI-H522 cells incubated for 48 hrs by sulforhodamine B assay; format: functional; settings: NCI-H522, 48 h
[10] = system: COLO 205; test: Growth inhibition of human COLO205 cells incubated for 48 hrs by sulforhodamine B assay; format: functional; settings: COLO 205, 48 h
[11] = system: HCC 2998; test: Growth inhibition of human HCC2998 cells incubated for 48 hrs by sulforhodamine B assay; format: functional; settings: HCC 2998, 48 h
[12] = system: HCT-116; test: Growth inhibition of human HCT116 cells incubated for 48 hrs by sulforhodamine B assay; format: functional; settings: HCT-116, 48 h
[13] = system: HCT-15; test: Growth inhibition of human HCT15 cells incubated for 48 hrs by sulforhodamine B assay; format: functional; settings: HCT-15, 48 h
[14] = system: HT-29; test: Growth inhibition of human HT-29 cells incubated for 48 hrs by sulforhodamine B assay; format: functional; settings: HT-29, 48 h
[15] = system: KM12; test: Growth inhibition of human KM12 cells incubated for 48 hrs by sulforhodamine B assay; format: functional; settings: KM12, 48 h
[16] = system: SW-620; test: Growth inhibition of human SW620 cells incubated for 48 hrs by sulforhodamine B assay; format: functional; settings: SW-620, 48 h
[17] = system: SF-539; test: Growth inhibition of human SF539 cells incubated for 48 hrs by sulforhodamine B assay; format: functional; settings: SF-539, 48 h
[18] = system: SNB-19; test: Growth inhibition of human SNB19 cells incubated for 48 hrs by sulforhodamine B assay; format: functional; settings: SNB-19, 48 h
[19] = system: U-251; test: Growth inhibition of human U251 cells incubated for 48 hrs by sulforhodamine B assay; format: functional; settings: U-251, 48 h
[20] = system: LOX IMVI; test: Growth inhibition of human LOXIMVI cells incubated for 48 hrs by sulforhodamine B assay; format: functional
[21] = system: M14; test: Growth inhibition of human M14 cells incubated for 48 hrs by sulforhodamine B assay; format: functional; settings: M14, 48 h
[22] = system: MDA-MB-435; test: Growth inhibition of human MDA-MB-435 cells incubated for 48 hrs by sulforhodamine B assay; format: functional; settings: MDA-MB-435, 48 h
[23] = system: SK-MEL-28; test: Growth inhibition of human SK-MEL-28 cells incubated for 48 hrs by sulforhodamine B assay; format: functional; settings: SK-MEL-28, 48 h
[24] = system: UACC-257; test: Growth inhibition of human UACC257 cells incubated for 48 hrs by sulforhodamine B assay; format: functional; settings: UACC-257, 48 h
[25] = system: UACC-62; test: Growth inhibition of human UACC62 cells incubated for 48 hrs by sulforhodamine B assay; format: functional; settings: UACC-62, 48 h
[26] = system: IGROV-1; test: Growth inhibition of human IGROV1 cells incubated for 48 hrs by sulforhodamine B assay; format: functional; settings: IGROV-1, 48 h
[27] = system: OVCAR-3; test: Growth inhibition of human OVCAR3 cells incubated for 48 hrs by sulforhodamine B assay; format: functional; settings: OVCAR-3, 48 h
[28] = system: OVCAR-5; test: Growth inhibition of human OVCAR5 cells incubated for 48 hrs by sulforhodamine B assay; format: functional; settings: OVCAR-5, 48 h
[29] = system: OVCAR-8; test: Growth inhibition of human OVCAR8 cells incubated for 48 hrs by sulforhodamine B assay; format: functional; settings: OVCAR-8, 48 h
[30] = system: NCI/ADR-RES; test: Growth inhibition of human NCI/ADR-RES cells incubated for 48 hrs by sulforhodamine B assay; format: functional
[31] = system: SK-OV-3; test: Growth inhibition of human SKOV3 cells incubated for 48 hrs by sulforhodamine B assay; format: functional; settings: SK-OV-3, 48 h
[32] = system: 786-0; test: Growth inhibition of human 786-O cells incubated for 48 hrs by sulforhodamine B assay; format: functional; settings: 786-0, 48 h
[33] = system: A498; test: Growth inhibition of human A498 cells incubated for 48 hrs by sulforhodamine B assay; format: functional; settings: A498, 48 h
[34] = system: ACHN; test: Growth inhibition of human ACHN cells incubated for 48 hrs by sulforhodamine B assay; format: functional
[35] = system: CAKI-1; test: Growth inhibition of human Caki1 cells incubated for 48 hrs by sulforhodamine B assay; format: functional; settings: CAKI-1, 48 h
[36] = system: RXF 393; test: Growth inhibition of human RXF393 cells incubated for 48 hrs by sulforhodamine B assay; format: functional; settings: RXF 393, 48 h
[37] = system: SN12C; test: Growth inhibition of human SN12C cells incubated for 48 hrs by sulforhodamine B assay; format: functional
[38] = system: UO-31; test: Growth inhibition of human UO31 cells incubated for 48 hrs by sulforhodamine B assay; format: functional; settings: UO-31, 48 h
[39] = system: PC-3; test: Growth inhibition of human PC3 cells incubated for 48 hrs by sulforhodamine B assay; format: functional; settings: PC-3, 48 h
[40] = system: DU-145; test: Growth inhibition of human DU145 cells incubated for 48 hrs by sulforhodamine B assay; format: functional; settings: DU-145, 48 h
[41] = system: BT-549; test: Growth inhibition of human BT549 cells incubated for 48 hrs by sulforhodamine B assay; format: functional; settings: BT-549, 48 h
[42] = system: MDA-MB-468; test: Growth inhibition of human MDA-MB-468 cells incubated for 48 hrs by sulforhodamine B assay; format: functional; settings: MDA-MB-468, 48 h
[43] = system: WI-38; test: Cytotoxicity against human WI38 cells assessed as reduction in cell viability after 24 hrs by MTT assay; format: cell-based; settings: WI-38, 24 h
[44] = system: WISH; test: Cytotoxicity against human WISH cells assessed as reduction in cell viability after 24 hrs by MTT assay; format: cell-based
[45] = Antioxidant activity assessed as superoxide dismutase-like activity by measuring inhibition of superoxide radical anion production at 2 uM by NBT reduction assay relative to control; format: functional
[46] = system: Escherichia coli; test: Induction of Escherichia coli genomic DNA cleavage after 1 hr by agarose gel electrophoresis method
[47] = Growth inhibition of human NCI60 cells at 10 uM after 48 hrs by SRB assay relative to control; values are per cent of control; settings: NCI60, 48 h

N=C(N)c1ccc(-c2ccc(-c3ccccc3)s2)cc1F
GI50 [1]: 3200 nM | GI50 [2]: 2140 nM | GI50 [3]: 3970 nM | GI50 [4]: 4400 nM | GI50 [5]: 2780 nM | GI50 [6]: 3110 nM | GI50 [7]: 10500 nM | GI50 [8]: 6000 nM | GI50 [9]: 6800 nM | GI50 [10]: 1820 nM | GI50 [11]: 2450 nM | GI50 [12]: 3260 nM | GI50 [13]: 4620 nM | GI50 [14]: 3400 nM | GI50 [15]: 4410 nM | GI50 [16]: 4050 nM | GI50 [17]: 4740 nM | GI50 [18]: 11700 nM | GI50 [19]: 4700 nM | GI50 [20]: 2580 nM | GI50 [21]: 2120 nM | GI50 [22]: 2180 nM | GI50 [23]: 8230 nM | GI50 [24]: 2180 nM | GI50 [25]: 10300 nM | GI50 [26]: 5290 nM | GI50 [27]: 8900 nM | GI50 [28]: 10900 nM | GI50 [29]: 11300 nM | GI50 [30]: 14100 nM | GI50 [31]: 10200 nM | GI50 [32]: 6020 nM | GI50 [33]: 12800 nM | GI50 [34]: 6560 nM | GI50 [35]: 6790 nM | GI50 [36]: 7010 nM | GI50 [37]: 8010 nM | GI50 [38]: 2680 nM | GI50 [39]: 4180 nM | GI50 [40]: 11300 nM | GI50 [41]: 10700 nM | GI50 [42]: 2040 nM | IC50 [43]: 91500 nM | IC50 [44]: 82200 nM | inhibition [45]: 54.5% | Activity [46]: Dose-dependent effect | growth percent at 10 µM [47]: -79.2%

N=C(N)c1ccc(-c2ccc(-c3ccc(Cl)cc3)s2)cc1
GI50 [1]: 200 nM | GI50 [2]: 214 nM | GI50 [3]: 202 nM | GI50 [4]: 207 nM | GI50 [5]: 194 nM | GI50 [6]: 249 nM | GI50 [8]: 182 nM | GI50 [9]: 186 nM | GI50 [10]: 203 nM | GI50 [11]: 183 nM | GI50 [12]: 170 nM | GI50 [13]: 171 nM | GI50 [14]: 177 nM | GI50 [15]: 196 nM | GI50 [16]: 177 nM | GI50 [17]: 171 nM | GI50 [18]: 194 nM | GI50 [19]: 172 nM | GI50 [20]: 179 nM | GI50 [21]: 172 nM | GI50 [22]: 172 nM | GI50 [23]: 176 nM | GI50 [24]: 310 nM | GI50 [25]: 178 nM | GI50 [27]: 194 nM | GI50 [28]: 169 nM | GI50 [29]: 223 nM | GI50 [30]: 185 nM | GI50 [31]: 246 nM | GI50 [32]: 178 nM | GI50 [33]: 191 nM | GI50 [34]: 180 nM | GI50 [35]: 167 nM | GI50 [36]: 157 nM | GI50 [37]: 180 nM | GI50 [38]: 175 nM | GI50 [39]: 164 nM | GI50 [40]: 185 nM | GI50 [41]: 1730 nM | GI50 [42]: 173 nM | IC50 [43]: 131000 nM | IC50 [44]: 146000 nM | inhibition [45]: 60.6% | Activity [46]: Dose-dependent effect | growth percent at 10 µM [47]: -70.5%

COc1cc(OC)cc(-c2ccc(-c3ccc(C(=N)N)c(F)c3)s2)c1
GI50 [1]: 306 nM | GI50 [2]: 229 nM | GI50 [3]: 262 nM | GI50 [4]: 326 nM | GI50 [5]: 246 nM | GI50 [6]: 224 nM | GI50 [7]: 1610 nM | GI50 [8]: 502 nM | GI50 [9]: 1200 nM | GI50 [10]: 208 nM | GI50 [11]: 207 nM | GI50 [12]: 173 nM | GI50 [13]: 196 nM | GI50 [14]: 267 nM | GI50 [15]: 352 nM | GI50 [16]: 212 nM | GI50 [17]: 165 nM | GI50 [18]: 1030 nM | GI50 [19]: 198 nM | GI50 [20]: 196 nM | GI50 [21]: 184 nM | GI50 [22]: 194 nM | GI50 [23]: 176 nM | GI50 [24]: 1850 nM | GI50 [25]: 1440 nM | GI50 [26]: 484 nM | GI50 [27]: 815 nM | GI50 [28]: 207 nM | GI50 [29]: 1200 nM | GI50 [30]: 1590 nM | GI50 [31]: 1640 nM | GI50 [32]: 174 nM | GI50 [33]: 1330 nM | GI50 [34]: 181 nM | GI50 [35]: 233 nM | GI50 [36]: 449 nM | GI50 [37]: 712 nM | GI50 [38]: 473 nM | GI50 [39]: 1300 nM | GI50 [40]: 426 nM | GI50 [41]: 1370 nM | GI50 [42]: 182 nM | IC50 [43]: 123000 nM | IC50 [44]: 115000 nM | inhibition [45]: 55.5% | Activity [46]: Dose-dependent effect | growth percent at 10 µM [47]: -77.8%
